In patent US20160376286A1, “Pyrimidin-4-one derivatives and their use in the tratement, amelioration or prevention of a viral disease” (priority 2011, published 2016):

Tested on: not given
Assay: not given
Conditions: not given

Structure (SMILES)	melting point
O=C(NO)c1cc(NS(=O)(=O)Cc2ccccc2)ccn1	187 to 192 °C
Cc1c(-c2cnn(C)c2)sc2nc(N)[nH]c(=O)c12	335 to 345 °C
CCONC(=O)c1ccc(-c2cccc(CN(C)CCCc3ccccc3)c2)cn1.Cl (hydrate or solvate)	50 to 55 °C

Tested on: influenza A virus A/Aichi/2/68 (H3N2)
Assay: Cytopathic effect (CPE) assay H3N2 in MDCK cells
Format: cell-based, influenza A virus (A/Aichi/2/68 (H3N2)); MDCK cells
Conditions: Influenza A virus, H3N2, MDCK, read-out: CPE H3N2 IC50 [μM]
Protocol: A possible measure of the […] antiviral activity of the compounds having the formula I or II is the CPE assay disclosed herein. […] In this connection, the reduction in the virus-mediated cytopathic effect (CPE) upon treatment with the compounds was calculated as follows: The cell viability of infected-treated and uninfected-treated cells was determined using an ATP-based cell viability assay (Promega). The response in relative luminescent units (RLU) of infected-untreated samples was subtracted from the response (RLU) of the infected-treated samples and then normalized to the viability of the corresponding uninfected sample resulting in % CPE reduction.
The influenza A virus (IAV) was obtained from American Tissue Culture Collection (A/Aichi/2/68 (H3N2); VR-547). Virus stocks were prepared by propagation of virus on Mardin-Darby canine kidney (MDCK; ATCC CCL-34) cells and infectious titres of virus stocks were determined by the 50% tissue culture infective dose (TCID50) analysis as described in Reed, L. J., and H. Muench. 1938, Am. J. Hyg. 27:493-497.
MDCK cells were seeded in 96-well plates at 2×10^4 cells/well using DMEM/Ham's F-12 (1:1) medium containing 10% foetal bovine serum (FBS), 2 mM L-glutamine and 1% antibiotics (all from PAA). Until infection the cells were incubated for 5 hrs at 37° C., 5.0% CO2 to form a -80% confluent monolayer on the bottom of the well. Each test compound was dissolved in DMSO and generally tested at 25 μM and 250 μM. In those cases where the compounds were not soluble at that concentration they were tested at the highest soluble concentration. The compounds were diluted in infection medium (DMEM/Ham's F-12 (1:1) containing 5 μg/ml trypsin, and 1% antibiotics) for a final plate well DMSO concentration of 1%. The virus stock was diluted in infection medium (DMEM/Ham's F-12 (1:1) containing 5 μg/m1Trypsin, 1% DMSO, and 1% antibiotics) to a theoretical multiplicity of infection (M01) of 0.05.
After removal of the culture medium and one washing step with PBS, virus and compound were added together to the cells. In the wells used for cytotoxicity determination (i.e. in the absence of viral infection), no virus suspension was added. Instead, infection medium was added. Each treatment was conducted in two replicates. After incubation at 37° C., 5% CO2 for 48 hrs, each well was observed microscopically for apparent cytotoxicity, precipitate formation, or other notable abnormalities. Then, cell viability was determined using
CellTiter-Glo luminescent cell viability assay (Promega). The supernatant was removed carefully and 65 μl of the reconstituted reagent were added to each well and incubated with gentle shaking for 15 min at room temperature. Then, 60 μl of the solution was transferred to an opaque plate and luminescence (RLU) was measured using Synergy HT plate reader (Biotek).
Relative cell viability values of uninfected-treated versus uninfected-untreated cells were used to evaluate cytotoxicity of the compounds. Substances with a relative viability below 80% at the tested concentration were regarded as cytotoxic and retested at lower concentrations.
Reduction in the virus-mediated cytopathic effect (CPE) upon treatment with the compounds was calculated as follows: The response (RLU) of infected-untreated samples was subtracted from the response (RLU) of the infected-treated samples and then normalized to the viability of the corresponding uninfected sample resulting in % CPE reduction.

Structure (SMILES)	IC50
Cc1c(-c2ccc(F)nc2F)sc2nc(N)[nH]c(=O)c12 [SAV-7621]	70 µM

Same assay, conditions: activity conc 2

Structure (SMILES)	CPE H3N2 reduction (%)
Cc1c(-c2ccccc2F)sc2nc(N)[nH]c(=O)c12 [SAV-7598]	21.3 3.7 11.4%
Cc1c(-c2ccc(F)cc2F)sc2nc(N)[nH]c(=O)c12 [SAV-7610]	−1.6%
Cc1c(-c2cc(C#N)ccc2Cl)sc2nc(N)[nH]c(=O)c12 [SAV-7617]	2 5.1%

Same assay, conditions: activity conc 2.5

Structure (SMILES)	CPE H3N2 reduction (%)
Cc1ccc(-c2sc3nc(N)[nH]c(=O)c3c2C)cc1 [SAV-7585]	28.9%

Same assay, conditions: activity conc 5

Structure (SMILES)	CPE H3N2 reduction (%)
Cc1c(-c2ccccc2)sc2nc(N)[nH]c(=O)c12 [SAV-7475]	8.9%
Cc1c(-c2cccc(C#N)c2)sc2nc(N)[nH]c(=O)c12 [SAV-7594]	14.5%
Cc1c(-c2ccc(Cl)c(C(F)(F)F)c2)sc2nc(N)[nH]c(=O)c12 [SAV-7623]	1.9%
Cc1c(-c2c(F)ccc(Cl)c2F)sc2nc(N)[nH]c(=O)c12 [SAV-7637]	1.5%
Cc1c(-c2ccccc2)sc2nc(Nc3ccccc3)[nH]c(=O)c12 [SAV-7638]	8.7%
Cc1c(-c2ccccc2)sc2nc(NC3CCCCC3)[nH]c(=O)c12 [SAV-7640]	−3.2%

Same assay, conditions: activity conc 10

Structure (SMILES)	CPE H3N2 reduction (%)
Nc1nc2sc(Cc3ccccc3)cc2c(=O)[nH]1 [SAV-7517]	39.3 13 −2.64%
Cc1c(-c2cccc(Cl)c2F)sc2nc(N)[nH]c(=O)c12 [SAV-7616]	68.7%

Same assay, conditions: activity conc 15

Structure (SMILES)	CPE H3N2 reduction (%)
Cc1c(-c2ccncc2)sc2nc(N)[nH]c(=O)c12 [SAV-7586]	81.2%

Same assay, conditions: activity conc 20

Structure (SMILES)	CPE H3N2 reduction (%)
COc1ccc(-c2sc3nc(N)[nH]c(=O)c3c2C)cc1 [SAV-7575]	35.9 9.02 4%
Cc1c(-c2ccc(Cl)cc2)sc2nc(N)[nH]c(=O)c12 [SAV-7579]	21.4 11.3 0.27%
Cc1c(-c2ccc(Cl)c(C#N)c2)sc2nc(N)[nH]c(=O)c12 [SAV-7602]	67.9 1.7 35.1%
CC(c1ccccc1)c1cc2c(=O)[nH]c(N)nc2s1 (stereo not shown) [SAV-7604]	−4.7 6.4%
Cc1c(-c2cc(C#N)ccc2F)sc2nc(N)[nH]c(=O)c12 [SAV-7615]	59.2%

Same assay, conditions: activity conc 25

Structure (SMILES)	CPE H3N2 reduction (%)
Cc1c(Cc2ccccc2)sc2nc(N)[nH]c(=O)c12 [SAV-7521]	64.7 6 33.6%
Cc1c(-c2ccc(F)nc2F)sc2nc(N)[nH]c(=O)c12 [SAV-7621]	14.3%
Cc1c(-c2ccc(Cl)c(C(=O)N(C)C)c2)sc2nc(N)[nH]c(=O)c12 [SAV-7626]	6.4 −4.6%

Same assay, conditions: activity conc 50 (μM)

Structure (SMILES)	CPE H3N2 reduction (%)
N/C(=N\O)c1ccc(C(=O)NO)nc1	−4.8%
CON(C)C(=O)c1ccc2ccccc2n1	−1.2%
O=C(NOC(=O)c1cc(N2CCCCC2)ccn1)c1cc(N2CCCCC2)ccn1	29%
CCONC(=O)c1cc(NCC2CCN(Cc3ccccc3)CC2)ccn1.Cl.Cl	14.8%
Cc1cccc(C(=O)NOCc2ccccc2)n1	−2.7%
CCONC(=O)c1cccc(C)n1	−2.1%
COc1ccc2nc(C(=O)NOCc3ccccc3)ccc2c1	−1.9%
Cc1cccc(C(=O)N(C)OCc2ccccc2)n1	−2.3%
CCON(C)C(=O)c1cccc(C)n1	−1.9%
CN(OCc1ccccc1)C(=O)c1ccc(-c2ccccc2)cn1	−2.6%
O=C(c1cc2ccccc2cn1)N(O)Cc1ccccc1	34.2%
O=C(NO)c1cc2ccccc2cn1	94.3%
O=C(NO)c1ccc(N2CCCC2)cn1	−4.3%
Nc1ccccc1NC(=O)c1ccc(C(=O)NO)nc1	−5.53%
O=C(c1cc(C2=CC3CCC(C2)N3)ccn1)N(O)Cc1ccccc1 (stereo not shown)	5.49%
Cl.O=C(NO)c1cc(NS(=O)(=O)Cc2ccc(Cl)c(Cl)c2)ccn1	53.43%

Structure (SMILES)	CPE H3N2 reduction (%)
Cl.O=C(NO)c1cc(NS(=O)(=O)Cc2cccc3cccnc23)ccn1	24.39%
Nc1nc2sc(-c3ccccc3)cc2c(=O)[nH]1 [SAV-7549]	65.5 −2.4 8.8%
Cc1c(-c2cccc(C(F)(F)F)c2)sc2nc(N)[nH]c(=O)c12 [SAV-7581]	87.8%
Cc1c(-c2ccccc2)sc2nc(NCCCO)[nH]c(=O)c12 [SAV-7582]	102.9 4.2 53.1%
Cc1c(-c2cccnc2)sc2nc(N)[nH]c(=O)c12 [SAV-7589]	63.1%
Cc1c(-c2ccc(F)cc2)sc2nc(N)[nH]c(=O)c12 [SAV-7601]	69.2 1.1 44.3%
Cc1c(C2=CCNCC2)sc2nc(N)[nH]c(=O)c12 [SAV-7614]	190 10.6%
Cc1c(-c2ccc(Cl)cc2F)sc2nc(N)[nH]c(=O)c12 [SAV-7618]	77.4%
Cc1cc(-c2sc3nc(N)[nH]c(=O)c3c2C)ccc1Cl [SAV-7620]	57.8%
Cc1c(-c2cccc(C#N)c2F)sc2nc(N)[nH]c(=O)c12 [SAV-7627]	71.2%
Cc1c(-c2ccc(F)c(C#N)c2F)sc2nc(N)[nH]c(=O)c12 [SAV-7628]	84.3%
Cc1c(-c2cccc(CN(C)C)c2)sc2nc(N)[nH]c(=O)c12 [SAV-7629]	38.3%
Cc1c(-c2ccc(Cl)nc2)sc2nc(N)[nH]c(=O)c12 [SAV-7632]	0.75 53%
Cc1c(-c2ccnc(Cl)c2F)sc2nc(N)[nH]c(=O)c12 [SAV-7633]	63.1%
O=C(NO)c1cc(NS(=O)(=O)Cc2ccccc2)ccn1 [drawing 243]	5.1%

Target: PB2 cap binding domain (CBD) of an avian H5N1 influenza virus (Influenza A virus, UniProt Q9Q0V1)
Assay: biochemical
Conditions: not given

Chain of PB2 cap binding domain (CBD) of an avian H5N1 influenza virus (Q9Q0V1 318-483 limits assumed): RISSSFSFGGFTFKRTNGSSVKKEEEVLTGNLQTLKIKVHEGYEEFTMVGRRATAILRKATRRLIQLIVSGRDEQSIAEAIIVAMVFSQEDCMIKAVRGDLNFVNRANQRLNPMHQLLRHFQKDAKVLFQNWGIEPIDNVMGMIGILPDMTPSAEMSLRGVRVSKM

Structure (SMILES)	Biacore Binding (RU)	Kd
Cc1c(-c2cccc(Cl)c2)sc2nc(N)[nH]c(=O)c12 [SAV-7580]	21.2 89.8 11 8.9 RU	
Cc1c(-c2ccccc2)sc2nc(NCCN(C)C)[nH]c(=O)c12 [SAV-7583]	77.8 4.8 66 RU	66 µM
Cc1c(-c2ccccc2Cl)sc2nc(N)[nH]c(=O)c12 [SAV-7596]	11 29.6 13.6 RU	11 µM
Cc1c(-c2cnn(C)c2)sc2nc(N)[nH]c(=O)c12 [SAV-7603]		4.2 µM
Cc1c(-c2cccc(F)c2)sc2nc(N)[nH]c(=O)c12 [SAV-7606]		6 µM
Nc1nc2sc(-c3ccccc3)c(Br)c2c(=O)[nH]1 [SAV-7631]		0.86 µM
